Data published in ChEMBL document CHEMBL3774320, “SAR exploration at the C-3 position of tetrahydro-β-carboline sstr3 antagonists” (Bioorg Med Chem Lett, 2016).

Key:
Rattus norvegicus [1] = species: Rattus norvegicus; settings: in vivo, po, 2 mg/kg
[2] = biological target: T1, Somatostatin receptor type 3 (Homo sapiens, UniProt P32745)
Description: Antagonist activity at human somatostatin receptor type 3 assessed as inhibition of cAMP levels

in vivo [3] = settings: rat, po, 2 mg/kg
[4] = biological target: T1, Somatostatin receptor type 3; remark: listed apart in the source
Description: Binding affinity to human somatostatin receptor type 3

Rattus norvegicus [5] = test: Volume of distribution at steady state in rat at 1 mg/kg, iv and at 2 mg/kg, po; settings: in vivo
[6] = Half life in mouse at 4 mg/kg, iv; settings: in vivo
in vivo [7] = settings: mouse, po, 10 mg/kg
[8] = Clearance in mouse plasma at 4 mg/kg, iv
Mus musculus = species: Mus musculus; settings: in vivo, po, 10 mg/kg
Rattus norvegicus [9] = test: Half life in rat at 1 mg/kg, iv; settings: in vivo
[10] = Volume of distribution at steady state in mouse at 4 mg/kg, iv and at 10 mg/kg, po; settings: in vivo
[11] = biological target: Voltage-gated inwardly rectifying potassium channel KCNH2 (Homo sapiens, UniProt Q12809); test: Binding affinity to human ERG
Chain of Voltage-gated inwardly rectifying potassium channel KCNH2 (Q12809 whole entry): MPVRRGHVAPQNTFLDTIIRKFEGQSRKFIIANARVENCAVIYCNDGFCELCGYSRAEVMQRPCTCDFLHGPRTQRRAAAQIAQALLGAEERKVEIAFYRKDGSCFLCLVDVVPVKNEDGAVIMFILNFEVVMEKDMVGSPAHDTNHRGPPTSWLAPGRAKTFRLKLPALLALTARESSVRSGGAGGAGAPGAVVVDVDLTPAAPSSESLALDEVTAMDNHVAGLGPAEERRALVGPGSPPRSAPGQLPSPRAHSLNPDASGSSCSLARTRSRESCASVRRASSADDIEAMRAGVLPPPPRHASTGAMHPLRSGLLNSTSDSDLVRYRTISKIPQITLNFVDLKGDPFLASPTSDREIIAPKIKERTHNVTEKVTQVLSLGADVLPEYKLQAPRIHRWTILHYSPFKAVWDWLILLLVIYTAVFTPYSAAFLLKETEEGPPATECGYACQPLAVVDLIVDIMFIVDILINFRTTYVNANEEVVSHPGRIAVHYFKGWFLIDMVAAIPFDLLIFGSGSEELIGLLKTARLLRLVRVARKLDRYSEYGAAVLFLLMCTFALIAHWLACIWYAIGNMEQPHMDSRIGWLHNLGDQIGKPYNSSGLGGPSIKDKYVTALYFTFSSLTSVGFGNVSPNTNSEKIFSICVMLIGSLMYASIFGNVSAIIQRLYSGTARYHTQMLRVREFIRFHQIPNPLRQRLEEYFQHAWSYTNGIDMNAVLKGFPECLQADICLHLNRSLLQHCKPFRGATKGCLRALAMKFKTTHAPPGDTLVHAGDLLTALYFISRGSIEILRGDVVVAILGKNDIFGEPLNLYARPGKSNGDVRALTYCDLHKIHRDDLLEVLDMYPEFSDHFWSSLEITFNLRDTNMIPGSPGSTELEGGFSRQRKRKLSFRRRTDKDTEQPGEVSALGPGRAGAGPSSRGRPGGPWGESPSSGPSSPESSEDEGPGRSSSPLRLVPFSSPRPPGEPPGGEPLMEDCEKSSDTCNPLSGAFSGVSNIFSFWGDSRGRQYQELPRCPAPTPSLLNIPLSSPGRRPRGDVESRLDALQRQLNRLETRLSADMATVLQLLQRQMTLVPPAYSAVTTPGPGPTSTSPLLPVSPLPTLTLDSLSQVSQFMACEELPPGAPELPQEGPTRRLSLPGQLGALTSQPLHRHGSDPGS

T1 sequence (P32745 whole entry): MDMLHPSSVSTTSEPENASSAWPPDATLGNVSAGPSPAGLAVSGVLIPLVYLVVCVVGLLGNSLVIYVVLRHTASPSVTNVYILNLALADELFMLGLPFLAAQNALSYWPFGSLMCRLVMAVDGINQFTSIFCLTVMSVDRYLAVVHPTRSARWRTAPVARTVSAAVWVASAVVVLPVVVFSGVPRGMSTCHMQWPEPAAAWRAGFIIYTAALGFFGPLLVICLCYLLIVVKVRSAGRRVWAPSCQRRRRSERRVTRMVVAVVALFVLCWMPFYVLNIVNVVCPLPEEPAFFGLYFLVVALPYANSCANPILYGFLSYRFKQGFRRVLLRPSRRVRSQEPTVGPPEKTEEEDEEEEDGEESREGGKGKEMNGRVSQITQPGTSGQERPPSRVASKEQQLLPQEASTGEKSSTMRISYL

Which AUC/dose (Rattus norvegicus [1]) does the source give for `CC1(c2nc(-c3ccccc3)c[nH]2)Cc2c([nH]c3ccccc23)C(C2CCOCC2)N1` (stereo in doubt; 6a) here?
Its AUC/dose is 0.28 µM·h/mg/kg.

What about the EC50 [2] of the same molecule?
Its EC50 is 17 nM.

And the bioavailability (in vivo [3])?
The bioavailability was 49%.

What about the IC50 [4] of the same molecule?
Its IC50 is 23 nM.

And the Vdss (Rattus norvegicus [5])?
The Vdss was 13.2 L/kg.

And the half-life [6]?
Its half-life is 1.3 h.

And the bioavailability (in vivo [7])?
The bioavailability was 58%.

And the clearance [8]?
Its clearance is 77 mL/min/kg.

And the AUC/dose (Mus musculus)?
Its AUC/dose is 0.31 µM·h/mg/kg.

And the t1/2 (Rattus norvegicus [9])?
Its t1/2 is 0.96 h.

What about the Vd [10] of the same molecule?
Its Vd is 4.6 L/kg.

And the IC50 [11]?
The IC50 was 2180 nM.
